Measurements from the NIST ThermoML archive (doi:10.1021/je100089s).

Assay: xn = mol fraction of the nth substance listed
Conditions: Liquid, Vibrating tube method

OCCO [1,2-ethanediol] + C[S+](C)[O-]
mass density [kg/m3]
Conditions	101 kPa	10000 kPa	25000 kPa	50000 kPa	75000 kPa	100000 kPa
298.15 K, x2 = 0	–	–	–	–	–	1145.51
298.15 K, x2 = 0.0181	–	–	–	–	–	1145.75
298.15 K, x2 = 0.0403	–	–	–	–	–	1145.93
298.15 K, x2 = 0.0701	–	–	–	–	–	1146.24
298.15 K, x2 = 0.1097	–	–	–	–	1138.51	1146.54
298.15 K, x2 = 0.1408	–	–	–	–	1138.73	1146.83
298.15 K, x2 = 0.1934	–	–	–	–	1138.98	1147.29
298.15 K, x2 = 0.234	–	–	–	–	1139.19	1147.46
298.15 K, x2 = 0.3244	–	–	–	–	1139.38	1147.77
298.15 K, x2 = 0.3764	–	–	–	–	1139.43	1147.93
298.15 K, x2 = 0.4429	–	–	–	–	1139.4	1148.01
298.15 K, x2 = 0.4892	–	–	–	–	1139.31	1147.94
298.15 K, x2 = 0.5654	–	–	–	–	1139.23	1147.85
298.15 K, x2 = 0.6946	–	–	–	–	1138.74	1147.55
298.15 K, x2 = 0.8142	–	–	–	–	1137.98	1146.87
298.15 K, x2 = 0.9266	–	–	–	–	1137.07	1146.03
308.15 K, x2 = 0	–	1107.05	1112.97	1122.28	1131.41	1139.57
308.15 K, x2 = 0.0181	–	1107.03	1113.01	1122.41	1131.6	1139.78
308.15 K, x2 = 0.0403	–	1106.95	1112.98	1122.46	1131.72	1139.87
308.15 K, x2 = 0.07007	1102.45	–	–	–	–	–
308.15 K, x2 = 0.0701	–	1106.68	1112.81	1122.47	1131.86	1140.08
308.15 K, x2 = 0.1097	1102.12	1106.18	1112.54	1122.52	1132.17	1140.24
308.15 K, x2 = 0.1408	1101.88	1105.87	1112.37	1122.47	1132.33	1140.54
308.15 K, x2 = 0.1934	1101.33	1105.29	1111.97	1122.32	1132.37	1140.74
308.15 K, x2 = 0.234	1100.86	1104.74	1111.63	1122.23	1132.39	1140.88
308.15 K, x2 = 0.3244	1099.65	1103.53	1110.76	1121.85	1132.45	1140.94
308.15 K, x2 = 0.3764	1098.89	–	–	1121.58	1132.41	1140.97
308.15 K, x2 = 0.4429	1097.76	1101.57	1109.29	1121.09	1132.2	1140.85
308.15 K, x2 = 0.4892	1096.94	1100.74	1108.61	1120.71	1132.04	1140.71
308.15 K, x2 = 0.5654	–	1099.47	1107.59	1120.07	1131.68	1140.47
308.15 K, x2 = 0.6298	1094.18	–	–	–	–	–
308.15 K, x2 = 0.6946	1092.91	1097.4	1105.69	1118.74	1130.89	1139.72
308.15 K, x2 = 0.8142	1090.07	1094.91	1103.81	–	1129.86	1138.6
308.15 K, x2 = 0.9266	1087.25	1092.99	1101.96	1115.8	1128.85	1137.41
308.15 K, x2 = 0.9577	1086.43	–	–	–	–	–
308.15 K, x2 = 0.9836	1085.76	1091.87	1100.89	1115.04	1128.14	1136.73
308.15 K, x2 = 0.992	1085.53	–	–	–	–	–
308.15 K, x2 = 0.9968	1085.39	–	–	–	–	–
323.15 K, x2 = 0	1092.12	–	–	1112.75	1122.55	1130.66
323.15 K, x2 = 0.00452	1092.05	–	–	–	–	–
323.15 K, x2 = 0.00721	1092.03	–	–	–	–	–
323.15 K, x2 = 0.0181	–	–	–	1112.77	1122.62	1130.77
323.15 K, x2 = 0.01811	1091.95	–	–	–	–	–
323.15 K, x2 = 0.03033	1091.83	–	–	–	–	–
323.15 K, x2 = 0.04027	1091.72	–	–	–	–	–
323.15 K, x2 = 0.0403	–	–	–	1112.8	1122.72	1130.87
323.15 K, x2 = 0.07007	1091.39	–	–	–	–	–
323.15 K, x2 = 0.0701	–	–	1102.37	1112.82	1122.84	1130.96
323.15 K, x2 = 0.1097	1090.85	1095.4	1102.05	1112.71	1122.87	1131
323.15 K, x2 = 0.1408	1090.44	1095	1101.79	1112.64	1122.91	1131.06
323.15 K, x2 = 0.1934	1089.61	1094.25	1101.25	1112.4	1122.85	1130.99
323.15 K, x2 = 0.234	–	1093.65	1100.8	1112.23	1122.77	1130.94
323.15 K, x2 = 0.3244	1087.33	1092.16	1099.69	1111.61	1122.44	1130.63
323.15 K, x2 = 0.3764	1086.33	1091.26	1098.98	1111.18	1122.18	1130.38
323.15 K, x2 = 0.4429	1084.93	1090	1097.94	1110.52	1121.69	1129.92
323.15 K, x2 = 0.4892	1083.92	–	1097.2	–	1121.34	1129.57
323.15 K, x2 = 0.5654	1082.23	1087.55	–	1109.22	1120.75	1128.99
323.15 K, x2 = 0.6298	1080.61	–	–	–	–	–
323.15 K, x2 = 0.6946	1079.07	1084.73	1093.6	1107.58	1119.48	1127.72
323.15 K, x2 = 0.8142	1075.74	1081.78	1091.06	1105.68	1117.9	1126.09
323.15 K, x2 = 0.867	1074.15	–	–	–	–	–
323.15 K, x2 = 0.9266	1072.5	1078.85	–	1103.78	1116.27	1124.43
323.15 K, x2 = 0.9577	1071.55	–	–	–	–	–
323.15 K, x2 = 0.9836	1070.76	1077.32	1087.21	–	1115.35	1123.49
323.15 K, x2 = 0.992	1070.5	–	–	–	–	–
323.15 K, x2 = 0.9968	1070.35	–	–	–	–	–
